In US8822517B2, “Arylosulfonamides for the treatment of CNS diseases” (Adamed SP. Z O.O., priority 2010, dated 2014):

What was measured:
dopaminergic D3 receptor = dopaminergic D3 receptor (Homo sapiens, UniProt P35462); test: Binding assay D3 (h), [3H]methyl-spiperone, CHO cells; set-up: expressed in transfected cells; host or cells: CHO cells; conditions: read-out: D3 [%]
Method: (§1) The specific ligand binding to the receptors is defined as the difference between the total binding and the nonspecific binding determined in the presence of an excess of so unlabelled ligand.
(§2) The specific Ligand binding to the receptor is defined as the difference between total and non-specific binding determined in the presence of an excess of unlabelled ligand. The compounds were tested at a concentration of 1×10^−6 M, and scintillation counting was the method of detection of ligand binding.

[1] = target: serotoninergic 5-HT2A receptor (Homo sapiens, UniProt P28223); test: Binding assay 5-HT2A (h), [3H]ketanserin, HEK-293 cells; set-up: expressed in transfected cells; host or cells: HEK-293 cells; conditions: read-out: 5-HT2A
Method: as §1, §2

[2] = target: serotoninergic 5-HT6 receptor (Homo sapiens, UniProt P50406); test: Binding assay 5-HT6 (h), [3H]LSD, CHO cells; set-up: expressed in transfected cells; host or cells: CHO cells; conditions: read-out: 5-HT6
Method: as §1, §2

[3] = target: T1, serotoninergic 5-HT1A receptor (Homo sapiens, UniProt P08908); test: Binding assay 5-HT1A (h), [3H]8-OH-DPAT, HEK-293 cells; set-up: expressed in transfected cells; host or cells: HEK-293 cells; conditions: read-out: 5-HT1A
T1 sequence (P08908 1-422): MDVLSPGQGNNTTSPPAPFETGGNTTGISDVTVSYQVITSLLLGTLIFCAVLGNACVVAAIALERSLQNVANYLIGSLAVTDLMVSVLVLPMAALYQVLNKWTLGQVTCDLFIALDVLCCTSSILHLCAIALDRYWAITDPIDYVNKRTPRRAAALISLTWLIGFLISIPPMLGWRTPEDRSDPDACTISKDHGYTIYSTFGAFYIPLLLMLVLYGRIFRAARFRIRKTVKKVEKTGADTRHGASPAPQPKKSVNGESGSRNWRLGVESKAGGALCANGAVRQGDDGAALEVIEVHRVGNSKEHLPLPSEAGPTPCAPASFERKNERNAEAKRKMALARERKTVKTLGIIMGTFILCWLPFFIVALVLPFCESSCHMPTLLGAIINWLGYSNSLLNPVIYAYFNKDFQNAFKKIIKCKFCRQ
Method: as §1, §2

[4] = target: serotoninergic 5-HT7 receptor (Homo sapiens, UniProt P34969); test: Binding assay 5-HT7 (h), [3H]LSD, CHO cells; set-up: expressed in transfected cells; host or cells: CHO cells; conditions: read-out: 5-HT7
Method: as §1, §2

dopaminergic D2 receptor = dopaminergic D2 receptor (Homo sapiens, UniProt P14416); test: Binding assay D2S (h), [3H]methyl-spiperone, HEK-293 cells; set-up: expressed in transfected cells; host or cells: HEK-293 cells; conditions: read-out: D2 [%]
Method: as §1, §2

[5] = target: T2, serotonine transporter (SERT) receptor (Homo sapiens, UniProt P31645); test: Binding assay SERT (h), [3H]imipramine, CHO cells; conditions: read-out: SERT [%]
T2 construct: expressed in transfected cells; host or cells: CHO cells
Method: as §1, §2

adrenergic α1 receptor = test: Binding assay α1 (non-selective), [3H]prazosin, rat cerebral cortex; conditions: percent inhibition of control specific binding; compounds tested at 1×10^−6 M
Method: as §1, §2

Chain of serotoninergic 5-HT7 receptor (P34969 whole entry): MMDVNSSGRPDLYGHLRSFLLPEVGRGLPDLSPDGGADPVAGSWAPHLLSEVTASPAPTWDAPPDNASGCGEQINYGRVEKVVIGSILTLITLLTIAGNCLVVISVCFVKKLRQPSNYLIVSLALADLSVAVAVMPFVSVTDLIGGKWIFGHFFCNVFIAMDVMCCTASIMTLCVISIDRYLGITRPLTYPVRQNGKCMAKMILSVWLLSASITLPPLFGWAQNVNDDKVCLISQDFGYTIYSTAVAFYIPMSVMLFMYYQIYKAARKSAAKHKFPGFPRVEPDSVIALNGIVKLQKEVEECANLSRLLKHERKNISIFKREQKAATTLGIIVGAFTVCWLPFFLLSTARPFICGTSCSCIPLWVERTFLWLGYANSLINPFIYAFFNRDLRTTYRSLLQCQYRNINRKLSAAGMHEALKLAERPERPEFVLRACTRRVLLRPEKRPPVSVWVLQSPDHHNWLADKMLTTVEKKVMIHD
Chain of serotoninergic 5-HT6 receptor (P50406 whole entry): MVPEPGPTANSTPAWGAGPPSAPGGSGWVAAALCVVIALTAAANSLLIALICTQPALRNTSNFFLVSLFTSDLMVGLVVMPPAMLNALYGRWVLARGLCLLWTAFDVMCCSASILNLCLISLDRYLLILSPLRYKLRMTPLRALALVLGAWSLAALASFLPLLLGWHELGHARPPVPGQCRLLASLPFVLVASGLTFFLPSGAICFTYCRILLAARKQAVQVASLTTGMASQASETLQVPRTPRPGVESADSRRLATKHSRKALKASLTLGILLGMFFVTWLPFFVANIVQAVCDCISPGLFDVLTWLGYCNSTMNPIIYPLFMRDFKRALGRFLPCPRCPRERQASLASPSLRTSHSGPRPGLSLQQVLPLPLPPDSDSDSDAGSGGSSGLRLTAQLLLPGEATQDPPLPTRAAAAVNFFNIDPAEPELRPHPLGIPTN
Chain of dopaminergic D2 receptor (P14416 1-414 isoform P14416-2): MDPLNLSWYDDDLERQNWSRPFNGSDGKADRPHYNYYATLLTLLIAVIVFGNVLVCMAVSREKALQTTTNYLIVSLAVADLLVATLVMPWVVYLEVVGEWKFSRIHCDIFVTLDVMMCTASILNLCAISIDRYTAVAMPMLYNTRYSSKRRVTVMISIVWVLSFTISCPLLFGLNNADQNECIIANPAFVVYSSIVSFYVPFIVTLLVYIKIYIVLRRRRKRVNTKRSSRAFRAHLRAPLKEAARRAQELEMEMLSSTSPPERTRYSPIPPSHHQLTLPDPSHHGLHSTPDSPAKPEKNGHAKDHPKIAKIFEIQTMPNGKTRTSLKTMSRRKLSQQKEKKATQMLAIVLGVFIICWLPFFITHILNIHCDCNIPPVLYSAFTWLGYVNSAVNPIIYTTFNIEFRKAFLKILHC
T2 sequence (P31645 whole entry): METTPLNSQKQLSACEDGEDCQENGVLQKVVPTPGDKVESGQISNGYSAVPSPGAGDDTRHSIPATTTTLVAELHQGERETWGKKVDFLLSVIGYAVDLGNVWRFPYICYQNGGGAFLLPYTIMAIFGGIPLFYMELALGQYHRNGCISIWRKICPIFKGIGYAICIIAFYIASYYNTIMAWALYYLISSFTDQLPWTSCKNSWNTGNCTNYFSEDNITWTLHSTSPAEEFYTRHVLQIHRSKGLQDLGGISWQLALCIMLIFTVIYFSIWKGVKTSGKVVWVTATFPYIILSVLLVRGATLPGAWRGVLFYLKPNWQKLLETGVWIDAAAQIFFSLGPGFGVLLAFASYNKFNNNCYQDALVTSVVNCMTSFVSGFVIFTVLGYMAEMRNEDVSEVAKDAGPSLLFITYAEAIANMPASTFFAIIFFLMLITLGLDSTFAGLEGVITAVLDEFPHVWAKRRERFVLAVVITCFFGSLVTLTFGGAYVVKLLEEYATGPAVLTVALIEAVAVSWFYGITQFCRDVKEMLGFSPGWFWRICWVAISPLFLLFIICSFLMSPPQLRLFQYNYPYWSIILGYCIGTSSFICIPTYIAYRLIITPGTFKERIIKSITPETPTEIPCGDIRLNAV
Chain of serotoninergic 5-HT2A receptor (P28223 whole entry): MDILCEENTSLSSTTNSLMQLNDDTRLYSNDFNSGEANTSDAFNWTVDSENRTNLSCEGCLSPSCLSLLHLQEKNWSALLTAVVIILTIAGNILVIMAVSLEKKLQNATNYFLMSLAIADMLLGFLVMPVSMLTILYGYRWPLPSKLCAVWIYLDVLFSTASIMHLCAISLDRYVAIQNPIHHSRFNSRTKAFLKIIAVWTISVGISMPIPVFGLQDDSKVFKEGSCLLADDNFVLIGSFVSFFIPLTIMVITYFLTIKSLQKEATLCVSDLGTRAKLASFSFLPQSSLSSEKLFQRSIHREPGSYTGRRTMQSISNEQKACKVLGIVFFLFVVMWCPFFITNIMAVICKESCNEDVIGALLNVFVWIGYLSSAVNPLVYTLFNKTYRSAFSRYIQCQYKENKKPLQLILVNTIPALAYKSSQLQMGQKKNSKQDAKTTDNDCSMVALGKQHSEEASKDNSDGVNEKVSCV
Chain of dopaminergic D3 receptor (P35462 whole entry): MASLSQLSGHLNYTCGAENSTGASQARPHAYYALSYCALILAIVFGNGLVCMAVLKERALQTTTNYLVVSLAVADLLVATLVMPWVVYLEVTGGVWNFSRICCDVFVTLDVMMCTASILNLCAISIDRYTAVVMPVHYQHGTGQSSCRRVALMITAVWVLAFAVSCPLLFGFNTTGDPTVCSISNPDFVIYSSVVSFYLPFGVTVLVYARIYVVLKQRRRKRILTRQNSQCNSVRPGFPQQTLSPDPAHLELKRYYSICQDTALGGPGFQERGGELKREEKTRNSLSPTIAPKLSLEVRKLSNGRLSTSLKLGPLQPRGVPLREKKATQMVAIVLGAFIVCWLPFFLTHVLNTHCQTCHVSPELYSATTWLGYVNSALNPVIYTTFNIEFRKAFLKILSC

O=S(=O)(NCCCN1CCC(c2noc3cc(F)ccc23)CC1)c1cccc(Br)c1 [Compound 110, 3-Bromo-N-[3-[4-(6-fluoro-1,2-benzoxazol-3-yl)piperidin-1-yl]propyl]benzenesulphonamide]
inhibition at 1 µM (dopaminergic D3 receptor): 97% | inhibition at 1 µM [1]: 99% | inhibition at 1 µM [2]: 96% | inhibition at 1 µM [3]: 55% | inhibition at 1 µM [4]: 91% | inhibition at 1 µM (dopaminergic D2 receptor): 109% | inhibition at 1 µM [5]: 8%

O=S(=O)(NCCCN1CCC(c2noc3cc(F)ccc23)CC1)c1ccc(Cl)cc1 [Compound 328, 4-Chloro-N-[3-[4-(6-fluoro-1,2-benzoxazol-3-yl)piperidin-1-yl]propyl]benzenesulphonamide]
inhibition at 1 µM (dopaminergic D3 receptor): 99% | inhibition at 1 µM [1]: 90% | inhibition at 1 µM [2]: 87% | inhibition at 1 µM [3]: 58% | inhibition at 1 µM [4]: 92% | inhibition at 1 µM (dopaminergic D2 receptor): 108% | inhibition at 1 µM [5]: 7%

Cc1[nH]c2ccc(Cl)cc2c1C1=CCN(CCCNS(=O)(=O)c2ccc(Cl)cc2)CC1 [Compound 444, 4-Chloro-N-[3-[4-(5-chloro-2-methyl-1H-indol-3-yl)-3,6-dihydro-2H-pyridin-1-yl]propyl]-benzenesulphonamide]
inhibition at 1 µM (dopaminergic D3 receptor): 74% | inhibition at 1 µM [1]: 65% | inhibition at 1 µM [2]: 87% | inhibition at 1 µM [3]: 51% | α1 [%] (adrenergic α1 receptor): 26% | inhibition at 1 µM [4]: 59% | inhibition at 1 µM [5]: 44%

O=c1[nH]c2cccc(N3CCN(CCCCNS(=O)(=O)c4ccc(F)cc4)CC3)c2[nH]1 [Compound 420, 4-Fluoro-N-[4-[4-(2-oxo-1,3-dihydrobenzimidazol-4-yl)piperazin-1-yl]butyl]benzenesulphonamide]
inhibition at 1 µM (dopaminergic D3 receptor): 97% | α1 [%] (adrenergic α1 receptor): 82%

O=S(=O)(NCCCN1CCN(c2cccc3c2OCCO3)CC1)c1ccc(F)c(F)c1 [Compound 410, N-[3-[4-(2,3-Dihydro-1,4-benzodioxin-5-yl)piperazin-1-yl]propyl]-3,4-difluorobenzenesulphonamide]
inhibition at 1 µM [1]: 42% | inhibition at 1 µM [3]: 96% | α1 [%] (adrenergic α1 receptor): 84%

O=S(=O)(NCCCCN1CCN(c2cccc3c2OCCO3)CC1)c1cccs1 [Compound 397, N-[4-[4-(2,3-Dihydro-1,4-benzodioxin-8-yl)piperazin-1-yl]butyl]thiophene-2-sulphonamide]
inhibition at 1 µM [1]: 13% | inhibition at 1 µM [3]: 95% | α1 [%] (adrenergic α1 receptor): 92%

O=c1[nH]c2cccc(N3CCN(CCCCNS(=O)(=O)c4cccc(F)c4)CC3)c2[nH]1 [Compound 175, 3-Fluoro-N-[4-[4-(2-oxo-1,3-dihydrobenzimidazol-4-yl)piperazin-1-yl]butyl]benzenesulphonamide]
inhibition at 1 µM (dopaminergic D3 receptor): 87% | α1 [%] (adrenergic α1 receptor): 82%

O=c1[nH]c2cccc(N3CCN(CCCCNS(=O)(=O)c4cccc(Cl)c4)CC3)c2[nH]1 [Compound 173, 3-Chloro-N-[4-[4-(2-oxo-1,3-dihydrobenzimidazol-4-yl)piperazin-1-yl]butyl]benzenesulphonamide]
inhibition at 1 µM (dopaminergic D3 receptor): 98% | α1 [%] (adrenergic α1 receptor): 89%

O=S(=O)(NCCCN1CCC(c2noc3cc(F)ccc23)CC1)c1ccc(Br)cc1 [Compound 330, 4-Bromo-N-[3-[4-(6-fluoro-1,2-benzoxazol-3-yl)piperidin-1-yl]propyl]benzenesulphonamide]
inhibition at 1 µM (dopaminergic D3 receptor): 99% | inhibition at 1 µM [1]: 93% | inhibition at 1 µM [2]: 83% | inhibition at 1 µM [3]: 67% | inhibition at 1 µM [4]: 90% | inhibition at 1 µM (dopaminergic D2 receptor): 108% | inhibition at 1 µM [5]: -2%

O=S(=O)(NCCCN1CCC(c2noc3cc(F)ccc23)CC1)c1ccc(Cl)s1 [Compound 341, 5-Chloro-N-[3-[4-(6-fluoro-1,2-benzoxazol-3-yl)piperidin-1-yl]propyl]thiophene-2-sulphonamide]
inhibition at 1 µM (dopaminergic D3 receptor): 98% | inhibition at 1 µM [1]: 102% | inhibition at 1 µM [2]: 93% | inhibition at 1 µM [3]: 74% | inhibition at 1 µM [4]: 78% | inhibition at 1 µM (dopaminergic D2 receptor): 98% | inhibition at 1 µM [5]: 8%

Cc1c(S(=O)(=O)NCCCN2CCC(c3noc4cc(F)ccc34)CC2)sc2ccc(Cl)cc12 [Compound 348, 5-Chloro-N-[3-[4-(6-fluoro-1,2-benzoxazol-3-yl)piperidin-1-yl]propyl]-3-methylbenzothiophene-2-sulphonamide]
inhibition at 1 µM (dopaminergic D3 receptor): 102% | inhibition at 1 µM [1]: 107% | inhibition at 1 µM [2]: 96% | inhibition at 1 µM [3]: 36% | inhibition at 1 µM [4]: 87% | inhibition at 1 µM (dopaminergic D2 receptor): 104% | inhibition at 1 µM [5]: 6%

O=S(=O)(NCCCN1CCC(c2noc3cc(F)ccc23)CC1)c1cccc(Cl)c1 [Compound 106, 3-Chloro-N-[3-[4-(6-fluoro-1,2-benzoxazol-3-yl)piperidin-1-yl]propyl]benzenesulphonamide]
inhibition at 1 µM (dopaminergic D3 receptor): 97% | inhibition at 1 µM [1]: 97% | inhibition at 1 µM [2]: 93% | inhibition at 1 µM [3]: 63% | inhibition at 1 µM [4]: 91% | inhibition at 1 µM (dopaminergic D2 receptor): 108% | inhibition at 1 µM [5]: 2%

O=S(=O)(NCCCCN1CCN(c2cccc3c2OCCO3)CC1)c1ccc2cc(Cl)ccc2c1 [Compound 387, 6-Chloro-N-[4-[4-(2,3-dihydro-1,4-benzodioxin-5-yl)piperazin-1-yl]butyl]naphthalene-2-sulphonamide]
inhibition at 1 µM (dopaminergic D3 receptor): 93% | inhibition at 1 µM [1]: 90% | inhibition at 1 µM [2]: 26% | inhibition at 1 µM [3]: 100% | α1 [%] (adrenergic α1 receptor): 86% | inhibition at 1 µM [4]: 96% | inhibition at 1 µM [5]: -14%

O=S(=O)(NCCCN1CCN(c2cccc3c2OCCO3)CC1)c1cccc(Br)c1 [Compound 413, 3-Bromo-N-[3-[4-(2,3-dihydro-1,4-benzodioxin-5-yl)piperazin-1-yl]propyl]benzenesulphonamide]
inhibition at 1 µM [1]: 40% | inhibition at 1 µM [3]: 88% | α1 [%] (adrenergic α1 receptor): 90%

O=c1[nH]c2cccc(N3CCN(CCCCNS(=O)(=O)c4ccc(Cl)cc4)CC3)c2[nH]1 [Compound 421, 4-Chloro-N-[4-[4-(2-oxo-1,3-dihydrobenzimidazol-4-yl)piperazin-1-yl]butyl]benzenesulphonamide]
inhibition at 1 µM (dopaminergic D3 receptor): 94% | α1 [%] (adrenergic α1 receptor): 88%

Cc1[nH]c2ccc(Cl)cc2c1C1=CCN(CCCCNS(=O)(=O)c2ccc(F)cc2)CC1 [Compound 368, N-[4-[4-(5-Chloro-2-methyl-1H-indol-3-yl)-3,6-dihydro-2H-pyridin-1-yl]butyl]-4-fluorobenzenesulphonamide]
inhibition at 1 µM (dopaminergic D3 receptor): 94% | inhibition at 1 µM [1]: 64% | inhibition at 1 µM [2]: 96% | inhibition at 1 µM [3]: -7% | inhibition at 1 µM [4]: 42% | inhibition at 1 µM (dopaminergic D2 receptor): 41% | inhibition at 1 µM [5]: 14%

Cc1cccc(S(=O)(=O)NCCCCN2CCN(c3cccc4[nH]c(=O)[nH]c34)CC2)c1 [Compound 422, 3-Methyl-N-[4-[4-(2-oxo-1,3-dihydrobenzimidazol-4-yl)piperazin-1-yl]butyl]benzenesulphonamide]
inhibition at 1 µM (dopaminergic D3 receptor): 98% | α1 [%] (adrenergic α1 receptor): 86%

O=S(=O)(NCCCN1CCN(c2nsc3ccccc23)CC1)c1ccc(Cl)cc1 [Compound 250, N-[3-[4-(1,2-Benzothiazol-3-yl)piperazin-1-yl]propyl]-4-chlorobenzenesulphonamide]
inhibition at 1 µM (dopaminergic D3 receptor): 85% | inhibition at 1 µM [1]: 92% | inhibition at 1 µM [2]: 73% | inhibition at 1 µM [3]: 98% | inhibition at 1 µM [4]: 88% | inhibition at 1 µM (dopaminergic D2 receptor): 97% | inhibition at 1 µM [5]: 23%

O=S(=O)(NCCCCN1CC=C(c2c[nH]c3ccc(F)cc23)CC1)c1cccc(O)c1 [Compound 434, N-[4-[4-(5-Fluoro-1H-indol-3-yl)-3,6-dihydro-2H-pyridin-1-yl]butyl]-3-hydroxybenzenesulphonamide]
inhibition at 1 µM (dopaminergic D3 receptor): 98%

O=S(=O)(NCCCN1CC=C(c2c[nH]c3ccc(F)cc23)CC1)c1cccc(F)c1 [Compound 436, 3-Fluoro-N-[3-[4-(5-fluoro-1H-indol-3-yl)-3,6-dihydro-2H-pyridin-1-yl]propyl]benzenesulphonamide]
inhibition at 1 µM (dopaminergic D3 receptor): 96% | inhibition at 1 µM [1]: 56% | inhibition at 1 µM [3]: 85%
